Consider one molecule from patent US20240269304A1, “BCL-XL INHIBITOR ANTIBODY-DRUG CONJUGATES AND METHODS OF USE THEREOF” (Novartis AG, priority 2020, published 2024).

Like-named read-outs stand apart in the source and are kept apart here.

By IC50 is commonly meant the point on the concentration scale where inhibition reaches its midpoint.

Common to all, as to assay type: cell-based
The subject of one assay is MM1S (MM). In words: CellTiter-Glo viability 72 h, single agent or 1/1 combination, MM1S (Example 9). Conditions: Homo sapiens, MM1.S, single agent or 1/1 combination as labelled. As to the method:
(§1) Cell lines were cultured in the media described above at 37° C. in a humidified atmosphere containing 5% CO2. Cells were seeded in 96 well clear bottom plates (96 well clear-bottom, white, Corning reference 3903) and exposed to the payloads or ADCs at single agents or in 1/1 combinations with vincristine, ABT-199 or compound A2 for 72 h (serially diluted; 9 concentrations each, triplicates). Effects of payloads or ADCs on cell viability were assessed after 3 days of incubation at 37° C./5% CO2 by quantification of cellular ATP levels using CellTiter-Glo reagent (Promega Ref: G7571) at 75 μL reagent/well. All the conditions were tested in triplicates. Luminescence was quantified on a multipurpose plate reader. IC50s were calculated using standard four-parametric curve fitting. […] Each experiment was performed at least twice, with results being reproducible.

The test system of the next assay is HPB-ALL (T-ALL). Description: CellTiter-Glo viability 72 h, single agent or 1/1 combination with vincristine, ABT-199 or Compound A2, HPB-ALL (Example 9). Particulars: Homo sapiens, HPBALL, single agent or 1/1 combination as labelled. As to the method:
as §1
For orientation: In ATP-based viability assays light output follows the ATP content of the culture.

The subject of a further assay is ALL-SIL cells. In words: CellTiterGlo (CTG) cell viability, 72 h, ALL-SIL (Example 8). The method, boiled down:
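In RPMI with 20% FBS, ALL-SIL cells were exposed for 72 h to serially diluted payloads or ADCs (9 concentrations, triplicate) at 37 °C/5% CO2. Viability was measured as cellular ATP by CellTiterGlo luminescence, with IC50 from four-parameter fit.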

For the next assay, the system named is DND-41 cells. In words: CellTiterGlo (CTG) cell viability, 72 h, DND-41 (Example 8). An outline of the steps:
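DND-41 cells in RPMI with 10% heat-inactivated FBS exposed to payloads or ADCs for 3 days at 37° C/5% CO2, in triplicate. Viability measured as cellular ATP by CellTiterGlo luminescence; IC50 from four-parameter fit.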

Regarding `Cc1c(Nc2nc3ccccc3s2)nnc2c1CCCN2c1ccc(-c2cnn(C[C@]34C[C@]5(C)C[C@](C)(C3)C[C@@](OCCN3CCCC3)(C5)C4)c2C)c(C(=O)O)n1` [P21, 6-[3-(1,3-benzothiazol-2-ylamino)-4-methyl-6,7-dihydro-5H-pyrido[2,3-c]pyridazin-8-yl]-3-[1-[[3,5-dimethyl-7-(2-pyrrolidin-1-ylethoxy)-1-adamantyl]methyl]-5-methyl-pyrazol-4-yl]pyridine-2-carboxylic acid], the IC50 with MM1S (MM) (mean, read-out: MM1S (MM) IC50 mean) was found to be 17.4 nM; in the assay on MM1S (MM) (n1, read-out: MM1S (MM) IC50 n1) it was 10.4 nM; with MM1S (MM) (n2, read-out: MM1S (MM) IC50 n2) it was 24.3 nM; with HPB-ALL (T-ALL) (mean, read-out: HPB-ALL (T-ALL) IC50 mean), 1.01 nM; in the assay on HPB-ALL (T-ALL) (n1, read-out: HPB-ALL (T-ALL) IC50 n1) it was 1.33 nM; with HPB-ALL (T-ALL) (n2, read-out: HPB-ALL (T-ALL) IC50 n2), 0.69 nM. Also, the IC50 in the assay on ALL-SIL cells (experiment n1, read-out: ALLSIL CTG 72 h IC50 nM n1) was found to be 0.02 nM; in the assay on ALL-SIL cells (experiment n2, read-out: ALLSIL CTG 72 h IC50 nM n2) it was 0.05 nM; in the assay on ALL-SIL cells (mean of n1 and n2, read-out: ALLSIL CTG 72 h IC50 nM Mean of n1 and n2), 0.04 nM; with DND-41 cells (DND41, experiment n1, read-out: DND41 CTG 72 h IC50 nM n1), 0.31 nM; in the assay on DND-41 cells (DND41, experiment n2, read-out: DND41 CTG 72 h IC50 nM n2), 0.2 nM; in the assay on DND-41 cells (DND41, mean of n1 and n2, read-out: DND41 CTG 72 h IC50 nM Mean of n1 and n2), 0.26 nM.
